Where “and” joins values, the source holds several entries; their conditions need not be identical. Equal entries are not always repeated.
Tests used:
[1] = test system: T2 maize events expressing the indicated Amaranthus PPO2 variant transgene; experiment: Maize whole plant PPO inhibitor tolerance testing, injury 0-9 point scale (Table B); assay type: in vivo; conditions: V2 stage, 3 days after treatment, individual plants
Method: Immature embryos are transformed according to the procedure outlined in Peng et al. (WO2006/136596). Plants are tested for the presence of the T-DNA by Taqman analysis with the target being the nos terminator which is present in all constructs. Healthy looking plants are sent to the greenhouse for hardening and subsequent spray testing. The plants are individually transplanted into MetroMix 360 soil in 4″ pots. Once in the greenhouse (day/night cycle of 27° C./21° C. with 14 hour day length supported by 600 W high pressure sodium lights), they are allowed to grow for 14 days. […] 200 g ai/ha saflufenacil+1.0% v/v methylated seed oil (MSO) and/or 25-200 g ai/ha 1,5-dimethyl-6-thioxo-3-(2,2,7-trifluoro-3-oxo-4-(prop-2-ynyl)-3,4-dihydro-2H-benzo[b][1,4]oxazin-6-yl)-1,3,5-triazinane-2,4-dione (CAS 1258836-72-4) plus 1% MSO. Other PPO inhibiting herbicides are also tested in a similar fashion for confirming cross resistance: flumioxazin, butafenacil, acifluorfen, lactofen, bifenox, sulfentrazone, methyl 2-[2-chloro-5-[3-chloro-5-(trifluoromethyl)-2-pyridyl]-4-fluoro-phenoxy]-2-methoxy-acetate, ethyl 2-[2-chloro-5-[3-chloro-5-(trifluoromethyl)-2-pyridyl]-4-fluoro-phenoxy]-2-methoxy-acetate, prop-2-ynyl 2-[2-chloro-5-[3-chloro-5-(trifluoromethyl)-2-pyridyl]-4-fluoro-phenoxy]-2-methoxy-acetate and photosynthesis inhibitor diuron as negative control. […] […] The top survivors are transplanted into gallon pots filled with Metro Mix 360 for seed production.

[2] = test system: transgenic T2 Arabidopsis plants; experiment: Greenhouse spray of transgenic T2 Arabidopsis plants, herbicide injury 0 to 100% phytotox rating (Table A); assay type: in vivo; conditions: 14 days after treatment
Method: Additionally, transgenic T2 Arabidopsis plants are tested for improved tolerance to herbicides in greenhouse studies with the following herbicides: methyl 2-[2-chloro-5-[3-chloro-5-(trifluoromethyl)-2-pyridyl]-4-fluoro-phenoxy]-2-methoxy-acetate, and photosynthesis inhibitor diuron as negative control.
Table A: Transgenic T2 Arabidopsis plants, four weeks old, were sprayed in the greenhouse with the indicated amount of compound+1% (v/v) MSO. Herbicide injury was evaluated 14 days after treatment with a 0 to 100% phytotox rating scale where 0 is no injury relative to an unsprayed wild type check and 100% is completely dead.

COC(=O)C(OC)Oc1cc(-c2ncc(C(F)(F)F)cc2Cl)c(F)cc1Cl (centres unmarked) [methyl 2-[2-chloro-5-[3-chloro-5-(trifluoromethyl)-2-pyridyl]-4-fluoro-phenoxy]-2-methoxy-acetate]
injury on a 0-9 point scale ([1]; maize T2, transgene L397D_F420M, 25 g ai/ha + 1% v/v MSO): 0 (2×) and 3 and 1
injury on a 0-9 point scale ([1]; maize T2, transgene L397D_F420M, 50 g ai/ha + 1% v/v MSO): 0 (2×) and 1 (2×)
injury on a 0-9 point scale ([1]; maize T2, transgene L397D_F420M, 100 g ai/ha + 1% v/v MSO): 0 (3×) and 1
injury on a 0-9 point scale ([1]; maize T2, transgene L397D_F420M, 200 g ai/ha + 1% v/v MSO): 0 (2×) and 2 and 1
injury on a 0-9 point scale ([1]; maize T2, transgene L397E_F420M, 25 g ai/ha + 1% v/v MSO): 9 (2×) and 2 and 0
injury on a 0-9 point scale ([1]; maize T2, transgene L397E_F420M, 50 g ai/ha + 1% v/v MSO): 0 and 9 (2×) and 1
injury on a 0-9 point scale ([1]; maize T2, transgene L397E_F420M, 100 g ai/ha + 1% v/v MSO): 4 and 1 and 0
injury on a 0-9 point scale ([1]; maize T2, transgene L397E_F420M, 200 g ai/ha + 1% v/v MSO): 0 and 6 (2×) and 5
injury on a 0-9 point scale ([1]; maize T2, transgene R128A_F420I, 25 g ai/ha + 1% v/v MSO): 0 (2×) and 1 (2×)
injury on a 0-9 point scale ([1]; maize T2, transgene R128A_F420I, 50 g ai/ha + 1% v/v MSO): 2 and 1 (2×) and 0
injury on a 0-9 point scale ([1]; maize T2, transgene R128A_F420I, 100 g ai/ha + 1% v/v MSO): 0 (2×) and 1 (2×)
injury on a 0-9 point scale ([1]; maize T2, transgene R128A_F420I, 200 g ai/ha + 1% v/v MSO): 1 (3×) and 0
injury on a 0-9 point scale ([1]; maize, Non transgenic, 25 g ai/ha + 1% v/v MSO): 8 and 9 (3×)
injury on a 0-9 point scale ([1]; maize, Non transgenic, 50 g ai/ha + 1% v/v MSO): 9
injury on a 0-9 point scale ([1]; maize, Non transgenic, 100 g ai/ha + 1% v/v MSO): 9
injury on a 0-9 point scale ([1]; maize, Non transgenic, 200 g ai/ha + 1% v/v MSO): 9
Herbicide injury, 0 to 100% phytotox rating ([2]; construct ALOMY_PPO2 F438I, 50 g ai/ha + 1% (v/v) MSO): 48%
Herbicide injury, 0 to 100% phytotox rating ([2]; construct ALOMY_PPO2 F438I, 100 g ai/ha + 1% (v/v) MSO): 64%
Herbicide injury, 0 to 100% phytotox rating ([2]; construct ALOMY_PPO2 F438I, 200 g ai/ha + 1% (v/v) MSO): 79%
Herbicide injury, 0 to 100% phytotox rating ([2]; construct ALOMY_PPO2 F438M, 50 g ai/ha + 1% (v/v) MSO): 30%
Herbicide injury, 0 to 100% phytotox rating ([2]; construct ALOMY_PPO2 F438M, 100 g ai/ha + 1% (v/v) MSO): 43%
Herbicide injury, 0 to 100% phytotox rating ([2]; construct ALOMY_PPO2 F438M, 200 g ai/ha + 1% (v/v) MSO): 69%
Herbicide injury, 0 to 100% phytotox rating ([2]; construct ALOMY_PPO2 F438V, 50 g ai/ha + 1% (v/v) MSO): 36%
Herbicide injury, 0 to 100% phytotox rating ([2]; construct ALOMY_PPO2 F438V, 100 g ai/ha + 1% (v/v) MSO): 55%
Herbicide injury, 0 to 100% phytotox rating ([2]; construct ALOMY_PPO2 F438V, 200 g ai/ha + 1% (v/v) MSO): 69%
Herbicide injury, 0 to 100% phytotox rating ([2]; construct ALOMY_PPO2 L415A_F438M, 50 g ai/ha + 1% (v/v) MSO): 23%
Herbicide injury, 0 to 100% phytotox rating ([2]; construct ALOMY_PPO2 L415A_F438M, 100 g ai/ha + 1% (v/v) MSO): 28%
Herbicide injury, 0 to 100% phytotox rating ([2]; construct ALOMY_PPO2 L415A_F438M, 200 g ai/ha + 1% (v/v) MSO): 39%
Herbicide injury, 0 to 100% phytotox rating ([2]; construct ALOMY_PPO2 L415E_F438M, 50 g ai/ha + 1% (v/v) MSO): 15%
Herbicide injury, 0 to 100% phytotox rating ([2]; construct ALOMY_PPO2 L415E_F438M, 100 g ai/ha + 1% (v/v) MSO): 29%
Herbicide injury, 0 to 100% phytotox rating ([2]; construct ALOMY_PPO2 L415E_F438M, 200 g ai/ha + 1% (v/v) MSO): 43%
Herbicide injury, 0 to 100% phytotox rating ([2]; construct ALOMY_PPO2 L415G_F438M (two table lines), 50 g ai/ha + 1% (v/v) MSO): 36% and 26%
Herbicide injury, 0 to 100% phytotox rating ([2]; construct ALOMY_PPO2 L415G_F438M (two table lines), 100 g ai/ha + 1% (v/v) MSO): 46% and 34%
Herbicide injury, 0 to 100% phytotox rating ([2]; construct ALOMY_PPO2 L415G_F438M (two table lines), 200 g ai/ha + 1% (v/v) MSO): 59% and 46%
Herbicide injury, 0 to 100% phytotox rating ([2]; construct ALOMY_PPO2 L415Q_F438M, 50 g ai/ha + 1% (v/v) MSO): 18%
Herbicide injury, 0 to 100% phytotox rating ([2]; construct ALOMY_PPO2 L415Q_F438M, 100 g ai/ha + 1% (v/v) MSO): 23%
Herbicide injury, 0 to 100% phytotox rating ([2]; construct ALOMY_PPO2 L415Q_F438M, 200 g ai/ha + 1% (v/v) MSO): 41%
Herbicide injury, 0 to 100% phytotox rating ([2]; construct ALOMY_PPO2 R137L_F438L, 50 g ai/ha + 1% (v/v) MSO): 55%
Herbicide injury, 0 to 100% phytotox rating ([2]; construct ALOMY_PPO2 R137L_F438L, 100 g ai/ha + 1% (v/v) MSO): 59%
Herbicide injury, 0 to 100% phytotox rating ([2]; construct ALOMY_PPO2 R137L_F438L, 200 g ai/ha + 1% (v/v) MSO): 71%
Herbicide injury, 0 to 100% phytotox rating ([2]; construct ALOMY_PPO2 R137L_F438M, 50 g ai/ha + 1% (v/v) MSO): 50%
Herbicide injury, 0 to 100% phytotox rating ([2]; construct ALOMY_PPO2 R137L_F438M, 100 g ai/ha + 1% (v/v) MSO): 68%
Herbicide injury, 0 to 100% phytotox rating ([2]; construct ALOMY_PPO2 R137L_F438M, 200 g ai/ha + 1% (v/v) MSO): 70%
Herbicide injury, 0 to 100% phytotox rating ([2]; construct ALOMY_PPO2 R137L_F438V, 50 g ai/ha + 1% (v/v) MSO): 39%
Herbicide injury, 0 to 100% phytotox rating ([2]; construct ALOMY_PPO2 R137L_F438V, 100 g ai/ha + 1% (v/v) MSO): 58%
Herbicide injury, 0 to 100% phytotox rating ([2]; construct ALOMY_PPO2 R137L_F438V, 200 g ai/ha + 1% (v/v) MSO): 65%
Herbicide injury, 0 to 100% phytotox rating ([2]; construct AMATU_PPO2 L397C_F420M, 50 g ai/ha + 1% (v/v) MSO): 58%
Herbicide injury, 0 to 100% phytotox rating ([2]; construct AMATU_PPO2 L397C_F420M, 100 g ai/ha + 1% (v/v) MSO): 63%
Herbicide injury, 0 to 100% phytotox rating ([2]; construct AMATU_PPO2 L397C_F420M, 200 g ai/ha + 1% (v/v) MSO): 71%
Herbicide injury, 0 to 100% phytotox rating ([2]; construct AMATU_PPO2 L397D_F420V, 50 g ai/ha + 1% (v/v) MSO): 49%
Herbicide injury, 0 to 100% phytotox rating ([2]; construct AMATU_PPO2 L397D_F420V, 100 g ai/ha + 1% (v/v) MSO): 59%
Herbicide injury, 0 to 100% phytotox rating ([2]; construct AMATU_PPO2 L397D_F420V, 150 g ai/ha + 1% (v/v) MSO): 67%
Herbicide injury, 0 to 100% phytotox rating ([2]; construct AMATU_PPO2 L397E_F420M, 50 g ai/ha + 1% (v/v) MSO): 59%

From US11149030B2, “Plants having increased tolerance to herbicides” (BASF AGRO B.V., priority 2016, dated 2021)
